Reference: patent US9426996B2, “Use of benzoxaboroles as volatile antimicrobial agents on meats, plants, or plant parts” (AgroFresh Inc., priority 2013, dated 2016)

Experiments:
Phytophthora capsici = assay: in vivo volatile assay on squash; conditions: 10 mg/L, 21° C. for 3 days
Procedure: To test the effect of Compound A (FIG. 1) on vegetables, potato, onion and squash were obtained from a local store, and the surface sterilized with 0.825% sodium hypochlorite (NaOCl). A slice of potato or two leaves of onion were placed in a sterile Petri plate, while whole squash were placed in a sterile 10.8-cup SnapWare airtight container (Model #109842). Each slice of potato was inoculated with 20 μL of a 1×10^5 spores/mL Fusarium sambucinum suspension, while onions were inoculated with 20 μL of a 1×10^6 spores/mL Botrytis cinerea suspension. For inoculation of squash, a small core was removed, and a mycelial plug of Phytophthora capsici was inserted and capped with the core. Compound A was diluted in acetone, and added to a 42.5 mm Whatman #1 filter disk (Cat. No. 1001-042) attached to the inner side of the lid at a rate to achieve a final headspace concentration of 10 mg/L. The acetone was permitted to evaporate for 5 minutes before parafilm sealing the plates or closing the airtight containers. The vegetables were incubated at 21° C. for 3 days, and evaluated for mycelial growth, dry rot, and water-soaked appearance (mm diameter) with results summarized in Table 13.

Botrytis cinerea [1] = assay: white roses with natural inoculum, volatile treatment; assay type: in vivo; design: key to Severity (0-4): 0 = No disease; 1 = Browning and small lesions on the sepals or petals; 2 = Browning, petals covered with fungal spores; 3 = Browning, petals covered with fungal spores, some petal drop; 4 = Browning, petals covered with fungal spores, some flowers aborted
Procedure: A similar test like the one described above is also performed on white roses with natural inoculum. Five white roses are placed in an 800 mL jar containing 200 mL of a common commercial flower preservative.
Three jars are then placed in a 117 L Rubbermaid storage box (Cat #2244). Two small fans are place in opposite ends of the container to assist with the volatile distribution of compound A. The tub is closed tightly, and then Compound A is diluted in acetone, and then pipetted onto a 1.5 inch×1 inch cotton strip. The acetone is allowed to evaporate for five minutes. Compound A is then introduced to the containers by a sublimation device (copper tube heated to 200° C. with fan flow at 0.5 L/min) to achieve a final headspace concentration of 0.04, 0.2, 1 mg/L, through a ½″ side port that is sealed immediately after the application. Alternatively, Compound A is pipetted onto a 42.5 mm Whatman #1 filter disk (Cat. No. 1001-042), supported by a watch glass, where the acetone is allowed to evaporate for five minutes prior to sealing the container. The flowers are incubated for three days at 21° C. After treatment, flowers are evaluated for an additional two days for disease incidence and severity of the flower petals. Applying a treatment at 1 mg/L through sublimation results in 0% incidence. Rose petals after treatment with Compound A have no disease incidence, retained white color, and the roses had no petal drop.

Botrytis cinerea [2] = assay: in vitro inhibition assay for volatile antimicrobial compounds (12-well PDA plates); assay type: cell-based; conditions: in vitro; volatile; 14 days at 4° C.
Procedure: 12-Well (7 milliliter (mL volume per well) microtiter plates are used for the in vitro inhibition assay for volatile antimicrobial compounds. A 3-mL volume of full-strength Potato Dextrose Agar (PDA) is added to each well. After cooling, 1 microliter (μL) of 1×10^6 per mL Botrytis cinerea spore suspension is spot pipetted to the center of the agar. For the first experiment, inoculated plates are allowed to germinate for 5 days at 4° C. For the second experiment, plates are inoculated immediately prior to volatile fungicide treatment. Small Whatman #1 filter disks (Cat. No. 1001-0155) are placed, in duplicate, on the underside of a polyethylene PCR plate sealing film.
The acetone is permitted to evaporate for 5 minutes. The headspace around the Botrytis cinerea inoculum is then sealed inside the well by the film with the adhering disk containing the fungicide. Plates are inverted, placed over the treated disks and sealed to prevent any of the chemical from flaking from the disk and falling onto the inoculated agar. After 14 days of storage at 4° C., cultures are evaluated for percent growth relative to control. Regardless of whether the spores had germinated for 5 days, or if the treatment commenced soon after inoculation of the plates (˜15 minutes); there is 100% control of the fungal pathogen down to 0.005 mg.
A total of 14 antimicrobial compounds are tested using the in vitro inhibition assay described in Example 1. All 14 compounds are applied to the Whatman disks, in duplicate, in a dose dependent manner (0.31 to 0.0006 mg/disk). […] Other compounds, such as Compound C, Compound D, and Compound E conferred 100% control down to 0.023, 0.04, and 0.08 mg/disk, respectively. Results of nine compounds are summarized in Table 2, where the other five compounds show no detected activity in the ranges tested. […]

Botrytis cinerea [3] = assay: in vivo volatile bioassay using strawberry
Procedure: In order to assess the in vivo activity of volatile antimicrobial compounds, a volatile bioassay is developed using strawberry. Two fruit are placed inside a 240 mL jar, with the calyx facing downwards. […] The acetone is permitted to evaporate for 5 minutes. The jars are then capped with the lids containing the fungicide, and placed for 5 days at 21° C. After storage, fruit are evaluated for incidence and severity of disease and appearance of phytotoxicity.

[4] = 0.04 mg/L, Applied through sublimation
[5] = 0.04 mg/L, Volatilized from Whatman Filter
[6] = 0.2 mg/L, Applied through sublimation
[7] = 0.2 mg/L, Volatilized from Whatman Filter
[8] = 1 mg/L, Applied through sublimation
[9] = 1 mg/L, Volatilized from Whatman Filter

## OB1OCc2cc(F)ccc21 [Compound A]
Phytophthora capsici
  Mycelial growth: 1.1 mm
  Water soaked: 5.3 mm
Botrytis cinerea [1]; [4]
  Incidence (%): 46.7%
  Severity (0-4): 1.7
Botrytis cinerea [1]; [5]
  Incidence (%): 46.7%
  Severity (0-4): 1.1
Botrytis cinerea [1]; [6]
  Incidence (%): 13.3%
  Severity (0-4): 0.5
Botrytis cinerea [1]; [7]
  Incidence (%): 66.7%
  Severity (0-4): 1.8
Botrytis cinerea [1]; [8]
  Incidence (%): 0%
  Severity (0-4): 0
Botrytis cinerea [1]; [9]
  Incidence (%): 53.3%
  Severity (0-4): 1.6
Botrytis cinerea [2]
  lowest rate with 100% control of Botrytis cinerea: 0.005 mg/disk
Botrytis cinerea [3]; 0.005 mg/disk, 5 days at 21° C.
  Percent (%) Incidence of Botrytis cinerea on Strawberry (in vivo): 75%
Botrytis cinerea [3]; 0.01 mg/disk, 5 days at 21° C.
  Percent (%) Incidence of Botrytis cinerea on Strawberry (in vivo): 100%
Botrytis cinerea [3]; 0.02 mg/disk, 5 days at 21° C.
  Percent (%) Incidence of Botrytis cinerea on Strawberry (in vivo): 50%
Botrytis cinerea [3]; 0.04 mg/disk, 5 days at 21° C.
  Percent (%) Incidence of Botrytis cinerea on Strawberry (in vivo): 75%
Botrytis cinerea [3]; 0.08 mg/disk, 5 days at 21° C.
  Percent (%) Incidence of Botrytis cinerea on Strawberry (in vivo): 0%
Botrytis cinerea [3]; 0.16 mg/disk, 5 days at 21° C.
  Percent (%) Incidence of Botrytis cinerea on Strawberry (in vivo): 0%
Botrytis cinerea [3]; 0.32 mg/disk, 5 days at 21° C.
  Percent (%) Incidence of Botrytis cinerea on Strawberry (in vivo): 0%
Botrytis cinerea [3]; 0.64 mg/disk, 5 days at 21° C.
  Percent (%) Incidence of Botrytis cinerea on Strawberry (in vivo): 0%
Botrytis cinerea [3]; 1.25 mg/disk, 5 days at 21° C.
  Percent (%) Incidence of Botrytis cinerea on Strawberry (in vivo): 0%
Botrytis cinerea [3]; 2.5 mg/disk, 5 days at 21° C.
  Percent (%) Incidence of Botrytis cinerea on Strawberry (in vivo): 0%
Botrytis cinerea [3]; strawberry, 5 days at 21° C.
  lowest rate with 100% control of Botrytis cinerea: 0.16 mg/disk
Botrytis cinerea [3]; strawberry, any of the rates evaluated (2.5 to 0.005 mg/disk)
  appearance of phytotoxicity: no evidence of phytotoxicity
